Key:
[1] = biological target: T1, recombinant human secretory phospholipase A2 (Homo sapiens, UniProt P14555); assay: Inhibition test of human secretory phospholipase A2 (chromogenic assay, 96 well microtiterplate); format: biochemical; settings: sPLA2 50 ng/well, 40° C., 30 minutes, OD 405 nm, substrate 1,2-bis(heptanoylthio)-1,2-dideoxy-sn-glycero-3-phospholylcholine
T1 sequence (P14555 21-144): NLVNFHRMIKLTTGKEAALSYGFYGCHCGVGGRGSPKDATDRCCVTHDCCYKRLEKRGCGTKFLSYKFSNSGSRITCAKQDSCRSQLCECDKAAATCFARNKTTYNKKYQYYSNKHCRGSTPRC
Source text: Inhibition Test of Human Secretory Phospholipase A2 Analytical Experiment
In order to identify and evaluate an inhibitor of recombinant human secretory phospholipase A2, the following chromogenic assay is utilized. The assay herein has been applied for high volume screening wherein 96 well microtiterplate is used. A general explanation for such assay is described in “Analysis of Human Synovial Fluid Phospholipase A2 on Short Chain Phosphatidylcholine-Mixed Micelles: Development of a Spectrophotometric Assay Suitable for a Micortiterplate Reader” (Analytical Biochemistry, 204, pp 190-197, 1992 by Laure. J. Reynolds. Lori L. Hughes and Edward A. Dennis: the disclosure of which is incorporated herein for reference.
1 mg of sPLA2 is dissolved in 1 ml of an enzyme buffer. Thereafter, the solution is maintained at 4° C.
In the assay, 5 μl of the solution is diluted with 1995 μl of the reaction buffer to be used.
198 mg of 5,5′-dithiobis-2-[…] (manufactured by Wako Pure Chemicals) is dissolved in 100 ml of H2O
pH 7.5 (adjusted with NaOH)
100 mg of racemic 1,2-bis(heptanoylthio)-1,2-dideoxy-sn-glycero-3-phospholylcholine is dissolved in 1 ml of chloroform.
624.9 mg of Triton-X 100 is dissolved in the reaction buffer.
Enzyme Reaction: for 1 Plate of Microtiterplate
1) 0.106 ml of the substrate solution is put in a centrifugal tube, and nitrogen gas is jetted to remove the solvent. 0.54 ml of Triton-X 100 is added thereto, the mixture is stirred, thereafter it is sonified in a bath type sonification to dissolve. To the resulting product are added 17.8 ml of the reaction buffer and 0.46 ml of DTNB, and 0.18 ml each of the admixture is poured to wells of the 96 well microtiterplate.
2) 10 μl of a test compound (or solvent blank) are added in accordance with alignment of plates which has been previously set.
3) Incubation is effected at 40° C. for 15 minutes.
4) 20 μl of an enzyme solution (sPLA2) which has been previously diluted (50 ng/well) are added to start reaction (40° C., 30 minutes).
5) Changes in absorbancy for 30 minutes are measured by a plate reader, and inhibition activity was calculated (OD: 405 nm).
6) IC50 was determined by plotting log concentration with respect to inhibition values within 10% to 90% inhibiting range.

| SMILES | IC50 [1] [µM] | melting point [°C] |
| --- | --- | --- |
| CCc1c(C(=O)C(N)=O)c2c(OCC(=O)OC)nc(C)nn2c1Cc1ccccc1-c1ccccc1 [Compound I-7] | 0.607 | – |
| CCc1c(C(=O)C(N)=O)c2c(OCC(=O)O)nc(C)nn2c1Cc1ccccc1-c1cccs1 [Compound I-6] | 0.011 | 184 to 186 |
| CCc1c(C(=O)C(N)=O)c2c(OCC(=O)O)nc(C)nn2c1Cc1ccccc1 [Compound I-4] | 0.011 | 207 to 209 |
| CCc1c(C(=O)C(N)=O)c2c(OCC(=O)O)nc(C)nn2c1Cc1ccccc1-c1ccccc1 [Compound I-8] | 0.008 | 174 to 176 |

The remaining lines, values ahead:

| IC50 [1] [µM] | melting point [°C] | SMILES |
| --- | --- | --- |
| 0.203 | – | COC(=O)COc1nc(C)nn2c(Cc3ccccc3)c(C)c(C(=O)C(N)=O)c12 [Compound I-1] |
| 0.317 | 170 to 171 | CCc1c(C(=O)C(N)=O)c2c(OCC(=O)OC)nc(C)nn2c1Cc1ccccc1 [Compound I-3] |
| 0.013 | 195 to 197 | Cc1nc(OCC(=O)O)c2c(C(=O)C(N)=O)c(C)c(Cc3ccccc3)n2n1 [Compound I-2] |
